Test results as given in publication PMC10252614 (International Journal of Molecular Sciences, 2023).

Experiments:
[1] = target: T1, human AChE (hAChE) (Homo sapiens, UniProt P22303); assay: hAChE inhibition, modified Ellman's method; format: biochemical; settings: read-out: % of AChE inhibition
T1 construct: made in house
Protocol: N-Methylpropargylamine-quinazolines were tested for their inhibitory potency against human AChE (hAChE) and human BChE (hBChE) enzymes using the modified spectrophotometric method of Ellman et al..
The human recombinant BChE and AChE were prepared at the Department of Toxicology and Military Pharmacy (Faculty of Military Health Sciences, Hradec Kralove, Czech Republic). 5,5′-dithiobis(2-nitrobenzoic acid) (Ellman’s reagent, DTNB), phosphate buffer (PB, pH 7.4), acetylthiocholine (ATC) and butyrylthiocholine (BTC), were purchased from Sigma-Aldrich, Prague, Czech Republic. For measuring purposes, polystyrene Nunc 96-well microplates with a flat-bottom shape (ThermoFisher Scientific, Waltham, MA, USA) were utilized. All the assays were carried out in 0.1 M KH2PO4/K2HPO4 buffer, pH 7.4. Enzyme solutions were prepared at 2.0 units/mL in 2 mL aliquots. The assay medium consisted of a 0.1 M phosphate buffer (pH 7.4), 0.01 M DTNB, the enzyme, and 0.01 M substrate (ATC/BTC iodide solution). Concentration 1 µM was tested and the % of inhibition was calculated. Tested compounds were pre-incubated for 5 min. The reaction was started by immediate addition of 20 μL of the substrate. […] Each concentration was assayed in triplicate. Software GraphPad Prism 5 (San Diego, CA, USA) was used for the statistical data evaluation.

[2] = target: T2, hMAO-A (Homo sapiens, UniProt P21397); assay: in vitro inhibition of hMAO-A, kynuramine fluorescence assay; format: biochemical
T2 construct: purchased Merck (Prague, Czech Republic)
T2 sequence (P21397 1-527): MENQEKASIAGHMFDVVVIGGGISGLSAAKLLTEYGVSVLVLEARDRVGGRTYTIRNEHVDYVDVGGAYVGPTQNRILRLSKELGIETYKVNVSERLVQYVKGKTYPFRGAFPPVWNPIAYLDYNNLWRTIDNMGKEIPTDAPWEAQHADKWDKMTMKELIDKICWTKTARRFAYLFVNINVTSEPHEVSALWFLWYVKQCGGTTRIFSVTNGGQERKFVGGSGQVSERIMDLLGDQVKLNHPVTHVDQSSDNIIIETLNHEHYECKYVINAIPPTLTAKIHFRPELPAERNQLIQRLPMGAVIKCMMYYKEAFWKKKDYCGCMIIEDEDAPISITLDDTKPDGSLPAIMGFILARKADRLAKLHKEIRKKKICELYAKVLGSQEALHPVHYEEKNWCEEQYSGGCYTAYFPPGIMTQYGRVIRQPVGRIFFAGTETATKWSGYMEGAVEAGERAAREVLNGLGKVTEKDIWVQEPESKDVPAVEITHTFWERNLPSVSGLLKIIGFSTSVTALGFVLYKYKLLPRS
Protocol: The hMAO-A and hMAO-B enzymes were purchased from Merck (Prague, Czech Republic). […] The mixture was pre-incubated at 37 °C for 15 min and subsequently substrate kynuramine was added to the final concentration of 100 µM. The final volume of reaction mixture was 0.1 mL. The whole reaction mixture was incubated at 37 °C for 30 min. The reaction was stopped by the addition of 20 µL 4M NaOH.

[3] = target: T3, GluN1/GluN2B receptor (Homo sapiens, UniProt Q05586+Q13224); assay: whole-cell patch-clamp on HEK293 cells expressing GluN1/GluN2B NMDAR; format: cell-based; settings: HEK293, 10 µM, −60 mV, ± SEM (n = 5–6), 100% = full inhibition; read-out: Relative inhibition (RI) of GluN1/GluN2B NMDAR
T3 construct: expressed in transfected cells; host or cells: HEK293
Protocol: We tested the derivatives by the whole-cell patch-clamp method at a concentration of 10 μM under steady-state conditions in the presence of the saturating concentrations of NMDAR (co-)agonists (L-glutamate and glycine). […] Whole-cell patch-clamp recordings were performed using an Axopatch 200B amplifier (Molecular Devices, LLC., San Jose, CA, USA) at a holding membrane potential of −60 mV. HEK293 cells were co-transfected with DNA vectors encoding human versions of the GluN1-4a (GluN1) and GluN2B subunits and green fluorescent protein (GFP) in a 1:1:1 ratio using 0.9 μL PolyMag reagent (OZ Biosciences SAS, Marseille, France) in 50 μL Opti-MEM I [56, 57]. After 15 min on a magnetic plate, HEK293 cells were trypsinized and resuspended in Opti-MEM I medium containing 1% FBS, 2 mM MgCl2 and 3 mM kynurenic acid (to reduce cell death caused by activation of NMDARs). Electrophysiological measurements were performed 24–48 h after completion of transfection at room temperature. The extracellular recording solution (ECS) contained (in mM): 160 NaCl, 2.5 KCl, 10 HEPES, 10 D-glucose, 0.2 EDTA, and 0.7 CaCl2 (pH 7.3 with NaOH). […] A microprocessor-controlled rapid perfusion system with a time constant for solution exchange around the recorded cell of ~20 ms was used. Currents were low-pass filtered at 2 kHz using an eight-pole Bessel filter, digitized at 5 kHz, and recorded using the pCLAMP 10 program (Molecular Devices, LLC., San Jose, CA, USA). The co-agonist glycine (100 µM) was applied throughout the recording, and the agonist L-glutamate (1 mM) was used to elicit responses of GluN1/GluN2B receptors.

[4] = PAMPA prediction of BBB permeability; format: in vitro ADME; settings: for CNS (+/−): PAMPA class; for Papp: read-out: Pe ± SEM
Protocol: The assay validation was performed using standard compounds whose CNS status is experimentally known from in vivo conditions.
PAMPA (the parallel artificial membrane-permeability assay) is a high-throughput screening tool applicable for prediction of the passive transport of potential drugs across the blood–brain barrier (BBB). In this study, it was used as a non-cell-based in vitro assay carried out in a coated 96-well membrane filter. The filter membrane of the donor plate was coated with PBL (Polar Brain Lipid, Avanti, USA) in dodecane (4 µL of 20 mg/mL PBL in dodecane) and the acceptor well was filled with 300 µL of PBS (pH 7.4; VA). The tested compounds were dissolved first in DMSO and subsequently diluted with PBS (pH 7.4) to final concentrations of 50–100 μM in the donor wells. […] About 300 µL of the donor solution was added to the donor wells (VD) and the donor filter plate was carefully put on the acceptor plate so that the coated membrane was “in touch” with both the donor solution and acceptor buffer. In principle, the test compound diffused from the donor well through the lipid membrane (Area = 0.28 cm^2) to the acceptor well. The concentration of the drug in both the donor and acceptor wells were assessed after 3, 4, 5, and 6 h of incubation in quadruplicate using the UV plate reader Spark (Tecan Group Ltd., Männedorf, Switzerland) at the maximum absorption wavelength of each compound. In addition, the solution of the theoretical compound concentration, simulating the equilibrium state established if the membrane were ideally permeable, was prepared and assessed as well.

[5] = in vitro; settings: human, undifferentiated SH-SY5Y cells

T1 sequence (P22303 32-614): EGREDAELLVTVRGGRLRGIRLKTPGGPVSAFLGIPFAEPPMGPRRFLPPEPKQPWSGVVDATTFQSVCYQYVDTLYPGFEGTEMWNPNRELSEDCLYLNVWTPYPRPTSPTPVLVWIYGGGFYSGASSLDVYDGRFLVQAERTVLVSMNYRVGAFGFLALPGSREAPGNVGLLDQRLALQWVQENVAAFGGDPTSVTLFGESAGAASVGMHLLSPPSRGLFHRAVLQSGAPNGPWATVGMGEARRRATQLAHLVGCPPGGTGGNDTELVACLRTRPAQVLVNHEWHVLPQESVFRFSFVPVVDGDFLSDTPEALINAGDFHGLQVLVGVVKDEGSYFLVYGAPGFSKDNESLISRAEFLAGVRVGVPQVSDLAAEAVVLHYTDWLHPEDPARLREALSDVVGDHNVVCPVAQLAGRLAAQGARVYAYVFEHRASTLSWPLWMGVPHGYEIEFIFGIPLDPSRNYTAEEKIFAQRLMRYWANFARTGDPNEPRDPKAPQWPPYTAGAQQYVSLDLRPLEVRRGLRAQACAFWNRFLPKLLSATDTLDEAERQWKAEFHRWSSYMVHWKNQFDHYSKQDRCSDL
T3 sequence (Q13224 27-1484, other chains not shown): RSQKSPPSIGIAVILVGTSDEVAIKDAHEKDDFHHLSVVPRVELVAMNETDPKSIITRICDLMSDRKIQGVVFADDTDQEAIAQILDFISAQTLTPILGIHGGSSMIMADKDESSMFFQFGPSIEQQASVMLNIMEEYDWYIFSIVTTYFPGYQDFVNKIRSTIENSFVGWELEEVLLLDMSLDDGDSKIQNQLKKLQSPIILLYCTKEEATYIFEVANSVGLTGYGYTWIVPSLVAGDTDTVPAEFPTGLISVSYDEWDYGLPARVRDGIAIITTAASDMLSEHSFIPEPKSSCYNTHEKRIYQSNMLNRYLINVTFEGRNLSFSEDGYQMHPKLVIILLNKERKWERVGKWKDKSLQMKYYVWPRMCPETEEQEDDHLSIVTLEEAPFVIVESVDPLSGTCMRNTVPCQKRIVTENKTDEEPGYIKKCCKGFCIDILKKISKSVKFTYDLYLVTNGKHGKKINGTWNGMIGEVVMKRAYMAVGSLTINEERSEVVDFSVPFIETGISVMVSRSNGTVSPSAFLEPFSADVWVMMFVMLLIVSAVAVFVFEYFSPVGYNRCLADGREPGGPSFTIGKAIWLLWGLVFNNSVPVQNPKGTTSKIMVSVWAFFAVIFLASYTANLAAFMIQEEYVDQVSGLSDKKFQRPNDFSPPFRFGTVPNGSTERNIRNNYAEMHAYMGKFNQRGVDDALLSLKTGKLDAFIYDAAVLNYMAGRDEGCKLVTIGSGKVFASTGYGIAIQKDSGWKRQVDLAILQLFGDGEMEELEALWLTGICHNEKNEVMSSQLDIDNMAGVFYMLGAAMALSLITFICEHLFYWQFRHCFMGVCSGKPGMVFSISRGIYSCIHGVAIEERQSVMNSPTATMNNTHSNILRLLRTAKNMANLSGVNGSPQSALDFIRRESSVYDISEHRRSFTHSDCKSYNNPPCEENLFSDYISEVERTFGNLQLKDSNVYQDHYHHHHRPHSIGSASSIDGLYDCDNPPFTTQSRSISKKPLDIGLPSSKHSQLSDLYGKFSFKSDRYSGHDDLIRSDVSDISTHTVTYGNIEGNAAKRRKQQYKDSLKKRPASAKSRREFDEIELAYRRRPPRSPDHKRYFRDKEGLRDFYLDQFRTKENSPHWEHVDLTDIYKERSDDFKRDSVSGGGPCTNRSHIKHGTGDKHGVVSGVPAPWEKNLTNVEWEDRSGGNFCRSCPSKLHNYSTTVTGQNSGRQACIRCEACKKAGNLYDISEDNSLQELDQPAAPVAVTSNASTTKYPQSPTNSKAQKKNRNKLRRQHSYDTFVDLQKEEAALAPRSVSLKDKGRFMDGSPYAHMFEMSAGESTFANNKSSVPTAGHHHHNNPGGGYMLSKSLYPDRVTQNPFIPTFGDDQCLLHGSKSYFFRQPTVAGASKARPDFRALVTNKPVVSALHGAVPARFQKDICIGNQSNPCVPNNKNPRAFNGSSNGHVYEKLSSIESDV

Row | SMILES | inhibition at 1 µM [1] [%] | IC50 [2] [µM] | inhibition at 10 µM [3] [%] | BBB penetration by PAMPA (in words) [4] | CNS (+/−) [4] | Papp ([4]; PAMPA, PBS pH 7.4) [×10⁻⁶ cm/s] | IC50 at 24 h [5] [µM] | Pe ± SEM ([4]; PAMPA, PBS pH 7.4) [×10⁻⁶ cm/s]
1 | C#CCN(C)c1nc(NCCCC)c2ccccc2n1 [I-6e, N4-butyl-N2-methyl-N2-(prop-2-yn-1-yl)quinazoline-2,4-diamine] | 3 | 2.6 ± 0.23 | 30.1 ± 3.13 | high probability of crossing BBB via passive diffusion | CNS (+) (CNS (+) (high BBB permeation predicted): Pe (×10^−6 cm s^−1) > 4.0) | 7.37 ± 1.22 | 67.95 ± 0.22 | 
2 | C#CCN(C)c1nc(NC2CCCCC2)c2ccccc2n1 [I-6h, N4-cyclohexyl-N2-methyl-N2-(prop-2-yn-1-yl)quinazoline-2,4-diamine] | 4 | 0.9 ± 0.17 | 49.3 ± 1.16 | high probability of crossing BBB via passive diffusion | CNS (+) (CNS (+) (high BBB permeation predicted): Pe (×10^−6 cm s^−1) > 4.0) | 5.61 ± 1.01 | 53.2 ± 3.03 | 
3 | C#CCN(C)c1nc(NC2CCCCC2)c2ccc(Cl)cc2n1 [II-6h, 7-chloro-N4-cyclohexyl-N2-methyl-N2-(prop-2-yn-1-yl)quinazoline-2,4-diamine] | 3 |  | 63.5 ± 3.46 | high probability of crossing BBB via passive diffusion | CNS (+) (CNS (+) (high BBB permeation predicted): Pe (×10^−6 cm s^−1) > 4.0) | 9.39 ± 1.17 | 35 ± 1.53 | 
4 | C#CCN(C)c1nc(N)c2cc(OC)ccc2n1 [III-6a, 6-methoxy-N2-methyl-N2-(prop-2-yn-1-yl)quinazoline-2,4-diamine] | 9 | 0.62 ± 0.04 | 18.1 ± 5.75 | did not penetrate the artificial barrier | CNS (−) (CNS (−) (low BBB permeation predicted): Pe (×10^−6 cm s^−1) < 2.0) |  | 38.6 ± 0.82 | 0
